Results on three compounds are retold here after patent US20230201190A1, “USE OF MULTI[…] FOR TREATING THE RESPIRATORY DISTRESS AND CYTOKINE STORM SYNDROMES ASSOCIATED WITH C[…] INFECTIONS” (H4 ORPHAN PHARMA, priority 2020, published 2023).

The conditions of series [1]: noted by the HAS; cited from earlier work.
The next series relates to TGF-β activation. The settings on record: alveolar macrophages from healthy volunteers, dose and exposure dependent; cited from earlier work.
The next series addresses T1, histidine decarboxylase (Homo sapiens, UniProt P19113).
T1 sequence (P19113 1-662): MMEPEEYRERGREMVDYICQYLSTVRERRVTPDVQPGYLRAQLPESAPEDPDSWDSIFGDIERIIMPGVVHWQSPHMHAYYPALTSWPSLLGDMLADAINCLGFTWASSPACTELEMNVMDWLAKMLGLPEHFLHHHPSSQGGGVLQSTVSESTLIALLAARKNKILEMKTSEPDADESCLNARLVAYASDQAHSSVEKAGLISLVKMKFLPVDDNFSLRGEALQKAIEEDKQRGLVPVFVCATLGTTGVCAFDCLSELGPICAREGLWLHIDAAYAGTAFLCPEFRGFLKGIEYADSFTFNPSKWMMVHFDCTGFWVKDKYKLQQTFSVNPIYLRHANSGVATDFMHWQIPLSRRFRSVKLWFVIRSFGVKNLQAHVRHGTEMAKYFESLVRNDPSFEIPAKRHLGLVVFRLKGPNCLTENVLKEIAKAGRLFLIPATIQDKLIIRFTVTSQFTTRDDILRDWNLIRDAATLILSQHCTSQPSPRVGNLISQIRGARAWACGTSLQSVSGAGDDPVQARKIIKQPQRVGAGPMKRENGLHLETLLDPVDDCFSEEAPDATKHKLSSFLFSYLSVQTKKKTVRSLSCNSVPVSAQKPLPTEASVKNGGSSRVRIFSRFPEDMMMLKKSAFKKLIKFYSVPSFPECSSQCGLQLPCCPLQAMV
The following applies: cited from earlier work.

In series [2] the test system is BL6 mice sensitised to OVA receiving double-stranded RNA (Poly U/Poly A). Nature of the series: Whole body plethysmography (PenH) in OVA-sensitised mice given double-stranded RNA poly(A:U). It is filed as in vivo, mouse. As to the method: The inventors used a C57/B16J mouse model, hereafter referred to as BL6.
The protocol simulating a double-stranded RNA viral infection has been performed with 2 groups of 15 mice; these are 8 week old female mice. A control group treated only with saline served as a negative control.
BL6 mice are treated according to the protocol below. BL6 mice have been sensitised by intraperitoneal injections of […] OVA (ovalbumin) on days 0, 2 and 4. Thereafter, from day 10 to day 15, the mice have received a daily treatment with aerosolized OVA at the concentration of 20 mg/ml or saline for 20 min, using an ultrasound nebulizer (Ultra-Neb99). One hour later, the mice received […] of poly (A:U) or saline intranasally.
Group 3 which is sensitised to OVA and also receives double stranded RNA (Poly U/Poly A) according to the protocol described above but also tritoqualine at 10 mg/kg.
Each group is analysed by whole body plethysmography and the measurements are expressed in PenH. A measurement is performed every minute until 10 minutes after the introduction of the double-stranded RNA. Tritoqualine treatment is given 1 hour before the introduction of Poly U/Poly A (double-stranded RNA).
In group 3, which is the group treated with tritoqualine at a dose of 10 mg/kg (mice with viral infection after sensitisation to ovalbumin as well) there are have the following results at time 1 minute to 10 minutes, expressed in PenH units and averaged over 15 mice: […]

Series [3] can be described thus: Light sensitivity of the powder. In kind it is physicochemical. The following applies: white powder; degrades to Cotarnine and phthalic acid.
The test system of series [4] is CD63 expression on basophils. Nature of the series: Flow CAST basophil activation test, anti-FcεRI antibody stimulation, CD63/CCR3 flow cytometry on whole blood. In kind it is cell-based, human. The source says:
To study this modulating action of CD63 by tritoqualine, the inventors have used the basophil and a modified commercial test, the Flow CAST® kit from BULHMANN Laboratories AG (Switzerland), which is a Basophil Activation Test (BAT) that can be used for the in vitro detection of basophil degranulation as well as for the study of immediate type allergic reactions and hypersensitivities.
The test is designed for the in vitro diagnosis of CD63 expression as a surface marker of activated basophils. The test is performed on whole blood; flow cytometry is used to quantify CD63 expression on the surface of activated basophils.
To evaluate degranulation via CD63 expression, the Flow CAST® kit has been partially used. This test includes an anti-IgE receptor. The inventors have only used the latter activator.
These different couplings make it possible to characterise cells separately and in particular basophils. 4 windowing zones will be distinguished according to whether or not CD63 labelling is observed and whether or not CCR3 labelling is observed • CD63+ and CCR3− which characterise non-basophilic degranulated cells. • CD63+ and CCR3+ which characterise degranulated basophils. • CD63− and CCR3− which characterise non-degranulated non-basophilic cells. • CD63− and CCR3+ which characterise non-degranulated basophils.
The degranulation protocol has been carried out using the Flow CAST. […]

Consider `COC(=O)c1ccc2c(c1)NC(=O)/C2=C(\Nc1ccc(N(C)C(=O)CN2CCN(C)CC2)cc1)c1ccccc1` [OFEV, Nintedanib], for which, in series [1], the side effects is listed as about 92%.

Regarding `COCCN(CCCCc1ccc2c(n1)NCCC2)CC[C@H](Nc1ncnc2ccccc12)C(=O)O` [PLN-74809], the “inhibition of TGF-β activation” value with TGF-β activation was “up to 70%”.

Take `CCOc1c(N)c2c(c(OCC)c1OCC)C(C1c3c(cc4c(c3OC)OCO4)CCN1C)OC2=O` (centres unmarked) [tritoqualine, 7-amino-4,5,6-triethoxy-3-(5,6,7,8-tetrahydro-4-methoxy-6-methyl-1,3-dioxolo[4,5-g]isoquinolin-5-yl)phthalide]: the “inhibitory action on histidine decarboxylase” value at histidine decarboxylase is recorded as “very weak”. In addition, the “difference in airway resistance between tritoqualine group and untreated group (statistical analysis)” value in series [2] (10 mg/kg, p<0.001) is given as “highly significant”. The “airway resistance, mean of 15 mice” value in series [2] (T1 (1 minute after double-stranded RNA), tritoqualine 10 mg/kg given 1 hour before) amounted to 3.05 PenH; in series [2] (T2 (2 minutes), tritoqualine 10 mg/kg) it was 3.11 PenH; in series [2] (T3 (3 minutes), tritoqualine 10 mg/kg), 3.13 PenH; in series [2] (T4 (4 minutes), tritoqualine 10 mg/kg) it was 3.97 PenH; in series [2] (T5 (5 minutes), tritoqualine 10 mg/kg), 4.07 PenH; in series [2] (T6 (6 minutes), tritoqualine 10 mg/kg), 4.14 PenH. Further, the “airway resistance, mean of 15 mice” value in series [2] (T7 (7 minutes), tritoqualine 10 mg/kg) is 4.02 PenH; in series [2] (T8 (8 minutes), tritoqualine 10 mg/kg) it was 3.85 PenH; in series [2] (T9 (9 minutes), tritoqualine 10 mg/kg), 3.14 PenH; in series [2] (T10 (10 minutes), tritoqualine 10 mg/kg), 2.74 PenH. Also, the sensitivity to light result in series [3] is “very sensitive to light”. Moreover, the entries for the “cells still expressing CD63” value in series [4] (tritoqualine 5 μmol) and in series [4] (tritoqualine 10 μmol) were “approximately 40%” and “less than 2%”, respectively.
